# Experimental data published in patent US12673083B2, “TREM-1 inhibitors for the treatment of vaso-occlusions and tissue injuries in patients suffering from sickle cell disease” (INSERM (INSTITUT NATIONAL DE LA SANTÉ ET DE LA RECHERCHE …, priority 2019, dated 2026).
# Entries after “also recorded” stand apart in the source; their conditions may differ.
# How the values were obtained:
# neutrophils = test: Intravital microscopy of neutrophils in post-capillary venous microcirculation of the cremaster after TNFα injection; format: in vivo, HbSS knock-in sickle cell mice; details: HbSS mice
# Procedure: (§1) Experiments were performed on 4-6 week-old sex matched healthy control (Hba^tm1(HBA)Tow Hbb^tm3(HBG1,HBB) Tow) (HbAA (hα/hα::β^A/β^A)) and SCD (Hba^tm1(HBA)Tow Hbb^tm2(HBG1,HBB*)Tow) (HbSS (hα/hα::βS/βS)) mice as well as SAD transgenic sickle mice with or without Trem-1 gene deletion (TREM-1 KO). The animal protocol was approved by the Paris Descartes University Animal Care and Use Committee and the French Ministry of Agriculture. Animals were anesthetized with isoflurane, and whole blood was collected from each mouse via retro-orbital venipuncture by heparinized microcapillaries. In anesthetized animals, organs were immediately removed and divided into two and either immediately frozen in liquid nitrogen or fixed in 10% formalin and embedded in paraffin for histology.
# To characterize in vivo the effects of the TREM-1 pathway on neutrophils recruitment, we used a protocol as previously described (Koehl B et al. Haematologica. 2017 July; 102(7):1161-1172). Male mice were anaesthetized by spontaneous inhalation of isoflurane and maintained at 37° C. with a heating pad. The left jugular vein was cannulated to administer drugs and antibodies. […] 2 h after TNFα injection, the cremaster muscle was incised and neutrophils were monitored by injection of labeled Phycoerythrin-conjugated anti-Ly6G antibody (0.05 μg/g body weight, clone RB6-8C5, BD Biosciences Pharmingen). Venules were visualized with an intravital microscope (Zeiss Examiner D1) equipped with a water-immersion objective (Zeiss Plan-Apochromat 20×/1.0 NA) and fluorescence excitation was made through a Lambda DG-4 high-speed wavelength switcher (Sutter Instrument). […] Images were analyzed using SlideBook 6.0 software (Intelligent Imaging Innovations). The neutrophil rolling flux fraction, adhesion density, adhesion efficiency and transmigration were measured using playback assessment of 3-min digital time-lapse videos and 3D z-stack recordings of single unbranched venules (3 venules per mouse, 20-40 μm) from 2.5 hours to 5 hours after the TNFα challenge at 30-min intervals. […]
# Ter 119+ erythrocytes = test: Hypoxia-reoxygenation experimental vaso-occlusive crisis: vascular congestion with erythrocytes on histological sections; format: in vivo, sickle cell mice (SS)
# Procedure: as §1
# (§2) In order to test the pharmacological inhibition of TREM-1 on erythrocyte vascular congestion and neutrophils infiltrates, homozygous HbS (SS) mice were subjected to 14 hours hypoxia (8% oxygen) and then 1 hours reoxygenation (21% oxygen) to trigger acute vaso-occlusive crisis as previously described (Sabaa N et al. J Clin Invest. 2008 May; 118(5):1924-33). The TREM-1 inhibitory peptide for each of the hypoxia-reoxygenation experiments was administered by intraperitoneal injection just prior to the onset of hypoxia, as well as at the end of hypoxia, at the beginning of the reoxygenation phase. These conditions reproduce a situation of severe hypoxia for SCD, provoking crises and damage related to ischemia-reperfusion. After this experiment, the tissues were analyzed in the same way as for the SS mice in the base state.
# neutrophils (PMNs) = test: Hypoxia-reoxygenation experimental vaso-occlusive crisis: abundance of neutrophils on histological sections; format: in vivo, sickle cell mice (SS)
# Procedure: as §1, §2
# [1] = histological sections of lung, SS LR12 vs SS PBS
substance,measurement,setting,value
"LR12: 12 amino-acid TREM-1 inhibitory peptide LQEEDAGEYGCM, N-terminal 12 amino-acids of LR17 (TLT-1 derived) (Synthetic LR12)",neutrophil rolling,"neutrophils; between 3 h and 4 h30 post-injection of TNFα, LR12 6 mg/kg 10 min before and 3 mg/kg 3 h15 after TNFα, 2way ANOVA P value=0.0041",significant reduction; also recorded: reduces
same,neutrophil transmigration,"neutrophils; from 3 h to 5 h post-TNFα, 2way ANOVA P value <0.0001",significant reduction; also recorded: reduces
same,neutrophil adhesion,"neutrophils; throughout the experiment after TNFα, 2way ANOVA P value <0.0001",significant reduction; also recorded: reduces
same,"vascular congestion with Ter 119+ erythrocytes, liver","Ter 119+ erythrocytes; histological sections of liver, SS LR12 vs SS PBS, intraperitoneal, hypoxia-reoxygenation",significant reduction
same,"vascular congestion with Ter 119+ erythrocytes, lung",Ter 119+ erythrocytes; [1],not in lung sections
same,"vascular congestion with Ter 119+ erythrocytes, renal medulla","Ter 119+ erythrocytes; histological sections of renal medulla, SS LR12 vs SS PBS",significant reduction
same,"vascular congestion with Ter 119+ erythrocytes, spleen","Ter 119+ erythrocytes; histological sections of spleen, SS LR12 vs SS PBS",significant reduction
same,vascular congestion of tissues,"Ter 119+ erythrocytes; tissues of sickle cell mice (summary statement, FIGS. 3A-3D)",significant reduction
same,"abundance of neutrophils, liver (% green fluorescent surface)","neutrophils (PMNs); histological sections of liver, SS LR12 vs SS PBS",significant reduction
same,"abundance of neutrophils, lung (% green fluorescent surface)",neutrophils (PMNs); [1],significant reduction
same,abundance of neutrophils in tissues,"neutrophils (PMNs); tissues of sickle cell mice during experimental vaso-occlusive crisis (summary statement, FIGS. 4A and 4B)",significant reduction
